Experimental findings from ChEMBL document CHEMBL3045887, “Synthesis and anticonvulsant activity of some N-(benzoyl)glycinanilide derivatives” (Med Chem Res, 2013) are described below.

Series [1] concerns Mus musculus. Put plainly: Anticonvulsant activity in Swiss albino Mus musculus (mouse) assessed as protection against ScMet-induced myoclonic-clonic seizures at 30 mg/kg, ip measured at 0.5 hr. In kind it is functional, organism-based. Set-up: dose 30 mg/kg.
Series [2] concerns Mus musculus. Briefly: Neurotoxicity against Swiss albino Mus musculus (mouse) at 30 mg/kg, ip measured at 4 hr. The settings on record: in vivo. Set-up: dose 30 mg/kg, route intraperitoneal. The series is classed as toxicity, organism-based.
The test system of series [3] is Mus musculus. Put plainly: Anticonvulsant activity in Swiss albino Mus musculus (mouse) assessed as protection against ScMet-induced myoclonic-clonic seizures at 300 mg/kg, ip measured at 0.5 hr. In kind it is functional, organism-based. Set-up: dose 300 mg/kg.
In series [4] the test system is Mus musculus. Briefly: Anticonvulsant activity in Swiss albino Mus musculus (mouse) assessed as protection against ScMet-induced myoclonic-clonic seizures at 100 mg/kg, ip measured at 4 hr. The series is classed as functional, organism-based. More on the design: dose 100 mg/kg.
The test system of series [5] is Mus musculus. Put plainly: Neurotoxicity against Swiss albino Mus musculus (mouse) at 300 mg/kg, ip measured at 0.5 hr. In kind it is toxicity, organism-based. Set-up: dose 300 mg/kg, route intraperitoneal. The settings on record: in vivo.
Series [6] has as its system Mus musculus. Briefly: Anticonvulsant activity in Swiss albino Mus musculus (mouse) assessed as protection against maximal electric shock-induced tonic-clonic seizures at 300 mg/kg, ip measured at 4 hr. In kind it is functional, organism-based. More on the design: dose 300 mg/kg.
Series [7] has as its system Mus musculus. Briefly: Anticonvulsant activity in Swiss albino Mus musculus (mouse) assessed as protection against ScMet-induced myoclonic-clonic seizures at 300 mg/kg, ip measured at 4 hr. The series is classed as functional, organism-based. Set-up: dose 300 mg/kg.
Series [8] concerns Mus musculus. Put plainly: Neurotoxicity against Swiss albino Mus musculus (mouse) at 100 mg/kg, ip measured at 4 hr. The series is classed as toxicity, organism-based. More on the design: dose 100 mg/kg, route intraperitoneal. The settings on record: in vivo.
For series [9], the system named is Mus musculus. Briefly: Anticonvulsant activity in Swiss albino Mus musculus (mouse) assessed as protection against maximal electric shock-induced tonic-clonic seizures at 300 mg/kg, ip measured at 0.5 hr. In kind it is functional, organism-based. Set-up: dose 300 mg/kg.
For series [10], the system named is Mus musculus. Briefly: Neurotoxicity against Swiss albino Mus musculus (mouse) at 30 mg/kg, ip measured at 0.5 hr. More on the design: dose 30 mg/kg, route intraperitoneal. The following applies: in vivo. The series is classed as toxicity, organism-based.
The subject of series [11] is Mus musculus. Briefly: Neurotoxicity against Swiss albino Mus musculus (mouse) at 100 mg/kg, ip measured at 0.5 hr. In kind it is toxicity, organism-based. The following applies: in vivo. More on the design: dose 100 mg/kg, route intraperitoneal.
The test system of series [12] is Mus musculus. Put plainly: Anticonvulsant activity in Swiss albino Mus musculus (mouse) assessed as protection against maximal electric shock-induced tonic-clonic seizures at 100 mg/kg, ip measured at 4 hr. The series is classed as functional, organism-based. Set-up: dose 100 mg/kg.
Series [13] has as its system Mus musculus. Put plainly: Anticonvulsant activity in Swiss albino Mus musculus (mouse) assessed as protection against maximal electric shock-induced tonic-clonic seizures at 100 mg/kg, ip measured at 0.5 hr. In kind it is functional, organism-based. Set-up: dose 100 mg/kg.
The test system of series [14] is Mus musculus. Put plainly: Neurotoxicity against Swiss albino Mus musculus (mouse) at 300 mg/kg, ip measured at 4 hr. More on the design: dose 300 mg/kg, route intraperitoneal. The following applies: in vivo. In kind it is toxicity, organism-based.
In series [15] the test system is Mus musculus. Briefly: Anticonvulsant activity in Swiss albino Mus musculus (mouse) assessed as protection against ScMet-induced myoclonic-clonic seizures at 30 mg/kg, ip measured at 4 hr. In kind it is functional, organism-based. Set-up: dose 30 mg/kg.
For series [16], the system named is Mus musculus. Briefly: Anticonvulsant activity in Swiss albino Mus musculus (mouse) assessed as protection against ScMet-induced myoclonic-clonic seizures at 100 mg/kg, ip measured at 0.5 hr. In kind it is functional, organism-based. Set-up: dose 100 mg/kg.
Series [17] concerns Mus musculus. Put plainly: Anticonvulsant activity in Swiss albino Mus musculus (mouse) assessed as protection against maximal electric shock-induced tonic-clonic seizures at 30 mg/kg, ip measured at 0.5 hr. More on the design: dose 30 mg/kg. In kind it is functional, organism-based.
Series [18] relates to Mus musculus. Put plainly: Anticonvulsant activity in Swiss albino Mus musculus (mouse) assessed as protection against maximal electric shock-induced tonic-clonic seizures at 30 mg/kg, ip measured at 4 hr. More on the design: dose 30 mg/kg. In kind it is functional, organism-based.

Structures are written as SMILES. The source made the active and inactive calls. No cut-off for these calls is given here.

For the compound `Cc1cccc(C)c1NC(=O)CNC(=O)c1ccccc1`, the result in series [1], in [3], in series [4], in series [7], in series [9] and in series [13] was inactive. The outcome in series [15], in series [16], in series [17] and in series [18] was inactive. Besides, the Activity result in series [2], in series [5], in series [8], in [10], in [11] and in series [14] was “Non-toxic” in each case. In addition, the result in [6] and in series [12] was Active.

As to `COc1ccc(NC(=O)CNC(=O)c2ccccc2)cc1`, the outcome in series [1], in [3], in series [4], in series [7], in series [12] and in series [15] was inactive. For the same compound, the result in series [16], in series [17] and in series [18] was inactive. Moreover, the Activity entry in series [2], in series [5], in [8], in [10], in [11] and in series [14] was “Non-toxic” each time. For the same compound, the outcome in [6], in series [9] and in [13] was Active.
